Data reported in patent US20240009246A1, “CELLULAR-ANTIMICROBIAL COMBINATION COMPOSITION AND METHODS FOR TREATMENT OF BACTERIAL INFECTIONS OF JOINTS AND SOFT TISSUES” (priority 2021, published 2024).
≈ marks a conversion by molar mass, not a printed value. Where two headings read alike, the source gives them in different places.

How the values were obtained:
Synovial Cells = assay: in vitro cytotoxic activity of antibiotics against horse synovial cells; assay type: cell-based; settings: for IC50: Equus caballus, Synovial cell, read-out: Concentration (equine IC50)
Description: (§1) Table 1 and 2 represent in vitro evaluation of the cytotoxic activity of different conventional antibiotics, as assessed for toxicity against dog cells (Table 1) or horse cells (Table 2). Similar toxicity profiles would also be anticipated for human cells.
(§2) The antibiotics with the highest IC50 values are considered non-cytotoxic, while those with lower values are considered more cytotoxic, and unsuitable for co-administration with activated MSC or activated iMSCs. For example, amikacin and enrofloxacin are more cytotoxic to joint cells (e.g. synovial cells and chondrocytes) than vancomycin, and should not be used for preparing the antibiotic plus activated MSCs formulations of uses herein, whereas vancomycin is one of the preferred antibiotics for these formulations for treating gram+ infections.
(§3) Table 2 represents and overview of equine IC50s of certain antibiotics of use herein

Chondrocytes [1] = assay: in vitro cytotoxic activity of antibiotics against horse chondrocytes; assay type: cell-based; settings: for IC50: Equus caballus, Chondrocyte, read-out: Concentration (equine IC50)
Description: as §1, §2, §3

[2] = in vitro cytotoxic activity of antibiotics against dog synoviocytes; assay type: cell-based
Description: as §1, with “cells. The antibiotics with the highest IC50 values are considered non-cytotoxic, while those with lower values are considered more cytotoxic, and unsuitable for co-administration with activated MSC or activated iMSCs.” for “cells.”

[3] = in vitro cytotoxic activity of antibiotics against dog chondrocytes; assay type: cell-based; set-up: IC50 (cytotoxicity): unit not given beside the values
Description: as §1, with “cells. The antibiotics with the highest IC50 values are considered non-cytotoxic, while those with lower values are considered more cytotoxic, and unsuitable for co-administration with activated MSC or activated iMSCs.” for “cells.”

CHONDROCYTES [4] = assay: as above; assay type: cell-based; set-up: IC50 (cytotoxicity): unit not given beside the values
Description: as §1, with “cells. The antibiotics with the highest IC50 values are considered non-cytotoxic, while those with lower values are considered more cytotoxic, and unsuitable for co-administration with activated MSC or activated iMSCs.” for “cells.”

[5] = tested on: MRSA strain of Staphylococcus aureus; assay: equine model of septic arthritis (joint infected with MRSA), intra-articular treatment
Description: In one example, a model of septic arthritis was studied. […] Certain objectives of this study were to determine if intra-articular (IA) administration of TLR activated MSCs (e.g. bone marrow derived MSCs) improve clinical outcomes and reduce bacterial burden and biomarkers of joint inflammation in an equine model of septic arthritis compared to conventional antimicrobial therapy alone. It was hypothesized that activated MSC therapy in combination with conventional antibiotic therapy could improve resolution of septic arthritis as assessed by lameness evaluation, joint circumference, imaging, and more rapid resolution of bacterial infection and inflammatory biomarkers.
In this example, four horses, each experimentally infected in one joint with MRSA strain of Staphylococcus aureus in one joint were set up for the study. Treatment started 24 h after introduction of the infective agent, two antibiotic only (control); two in TLR3 MSC plus antibiotic. All horses were treated with vancomycin (e.g. 100 mg) injected directly into the joint. The control 2 horses were just treated with vancomycin. The experimental 2 horses were (TLR MSC horses) were also treated with activated equine allogeneic MSC (e.g. 2×10^6) injected into joint immediately after vancomycin. These treatments were repeated three times at 3-day intervals for MSC horse, only twice for control horse (euthanized on day 7). The treatment responses were evaluated by cultured synovial fluid from joints (bacti counts, cell counts) and joint circumference and swelling. […] The experimental horses receiving the combined treatment were euthanized on day 14 to assess joint parameters and bacterial counts.
Synovial fluid was collected from each horse in the study, at the indicated time points, starting the day before infection (DO) and continuing until day 7. Control horses treated with vancomycin injections into the joint only, while TLR-MSC horse was treated with both activated MSC and vancomycin, both injected into the joint. The vancomycin dose was 100 mg per injection, while the dose of TLR3 activated MSC was 2×10^6 cells per injection, consisting of activated, allogeneic MSC obtained from bone marrow of unrelated healthy horses.
Synovial fluid samples from the two horses described in FIGS. 1A and 1B were also evaluated for their concentration of live MRSA bacteria. Collected samples were processed to disaggregate the bacteria in the synovial fluid, then the sample was serially diluted in PBS and then plated on quadrant plates with LB agar.
Skeletally mature horses, (male Quarter Horses, 3 years of age), deemed healthy by physical examination, bloodwork (complete blood count, serum biochemical panel), and without evidence of tarsal osteoarthritis determined radiographically were treatment recipients.

## NCC[C@H](O)C(=O)N[C@@H]1C[C@H](N)[C@@H](O[C@H]2O[C@H](CN)[C@@H](O)[C@H](O)[C@H]2O)[C@H](O)[C@H]1O[C@H]1O[C@H](CO)[C@@H](O)[C@H](N)[C@H]1O [Amikacin]
Synovial Cells; equine synovial cells
  IC50: 799 µg/mL (≈ 1.36 mM)
Chondrocytes [1]; equine chondrocytes
  IC50: < 390 µg/mL
[2]; dog
  IC50: 2260 µg/mL (≈ 3.86 mM)
[3]; dog
  IC50: 2740 µg/mL (≈ 4.68 mM)

## CC1(C)S[C@@H]2[C@H](NC(=O)[C@H](N)c3ccc(O)cc3)C(=O)N2[C@H]1C(=O)O [Amoxicillin]
Synovial Cells; equine synovial cells
  IC50: > 25000 µg/mL
Chondrocytes [1]; equine chondrocytes
  IC50: 14000 µg/mL (≈ 38.3 mM)

## Cc1nnc(SCC2=C(C(=O)O)N3C(=O)[C@@H](NC(=O)Cn4cnnn4)[C@H]3SC2)s1 [Cefazolin]
Synovial Cells; equine synovial cells
  IC50: 1160 µg/mL (≈ 2.54 mM)
Chondrocytes [1]; equine chondrocytes
  IC50: 3950 µg/mL (≈ 8.69 mM)
[2]; dog
  IC50: 1480 µg/mL (≈ 3.26 mM)
[3]; dog
  IC50: 1670 µg/mL (≈ 3.67 mM)

## CC(C)(O/N=C(\C(=O)N[C@@H]1C(=O)N2C(C(=O)[O-])=C(C[n+]3ccccc3)CS[C@H]12)c1csc(N)n1)C(=O)O [Ceftazidime]
Synovial Cells; equine synovial cells
  IC50: 3360 µg/mL (≈ 6.15 mM)
Chondrocytes [1]; equine chondrocytes
  IC50: 3590 µg/mL (≈ 6.57 mM)
[2]; dog
  IC50: 1620 µg/mL (≈ 2.97 mM)
[3]; dog
  IC50: 3160 µg/mL (≈ 5.78 mM)

## CO/N=C(\C(=O)N[C@@H]1C(=O)N2C(C(=O)O)=C(CSC(=O)c3ccco3)CS[C@H]12)c1csc(N)n1 [Ceftiofur Sodium]
Synovial Cells; equine synovial cells
  IC50: > 25000 µg/mL
Chondrocytes [1]; equine chondrocytes
  IC50: 4270 µg/mL

## C[C@H]1c2cccc(O)c2C(=O)C2=C(O)[C@]3(O)C(=O)C(C(N)=O)=C(O)[C@@H](N(C)C)[C@@H]3[C@@H](O)[C@@H]21 [Doxycycline]
Synovial Cells; equine synovial cells
  IC50: 711 µg/mL (≈ 1.6 mM)
Chondrocytes [1]; equine chondrocytes
  IC50: 1030 µg/mL (≈ 2.32 mM)

## CCN1CCN(c2cc3c(cc2F)c(=O)c(C(=O)O)cn3C2CC2)CC1 [Enrofloxacin]
Chondrocytes [1]; equine chondrocytes
  IC50: 4590 µg/mL (≈ 12.8 mM)
[2]; dog
  IC50: 1250 µg/mL (≈ 3.47 mM)
CHONDROCYTES [4]
  IC50 (cytotoxicity): .078< × <1.56

## CS(=O)(=O)c1ccc([C@@H](O)[C@@H](CF)NC(=O)C(Cl)Cl)cc1 [Florfenicol]
Synovial Cells; equine synovial cells
  IC50: 2960 µg/mL (≈ 8.25 mM)
Chondrocytes [1]; equine chondrocytes
  IC50: 2190 µg/mL (≈ 6.11 mM)

## C[C@@H](O)[C@H]1C(=O)N2C(C(=O)O)=C(SCCN=CN)C[C@H]12 [Imipenem]
Synovial Cells; equine synovial cells
  IC50: > 25000 µg/mL
Chondrocytes [1]; equine chondrocytes
  IC50: > 25000 µg/mL

## CC1(C)S[C@@H]2[C@H](NC(=O)Cc3ccccc3)C(=O)N2[C@H]1C(=O)[O-].[K+] [Potassium penicillin]
Chondrocytes [1]; equine chondrocytes
  Concentration (equine IC50): 11610 µg/mL

## NC[C@H]1O[C@H](O[C@H]2[C@H](O)[C@@H](O[C@H]3O[C@H](CO)[C@@H](O)[C@H](N)[C@H]3O)[C@H](N)C[C@@H]2N)[C@H](N)C[C@@H]1O [Tobramycin]
Synovial Cells; equine synovial cells
  IC50: 9490 µg/mL (≈ 20.3 mM)
Chondrocytes [1]; equine chondrocytes
  IC50: > 25000 µg/mL

## CN[C@H](CC(C)C)C(=O)N[C@H]1C(=O)N[C@@H](CC(N)=O)C(=O)N[C@H]2C(=O)N[C@H]3C(=O)N[C@H](C(=O)N[C@H](C(=O)O)c4cc(O)cc(O)c4-c4cc3ccc4O)[C@H](O)c3ccc(c(Cl)c3)Oc3cc2cc(c3O[C@@H]2O[C@H](CO)[C@@H](O)[C@H](O)[C@H]2O[C@H]2C[C@](C)(N)[C@H](O)[C@H](C)O2)Oc2ccc(cc2Cl)[C@H]1O [Vancomycin]
Synovial Cells
  IC50: 7810 µg/mL (≈ 5.39 mM)
Chondrocytes [1]
  IC50: 7310 µg/mL (≈ 5.04 mM)
[5]; control euthanized day 7, combined treatment day 14
  overall outcome of joint infection: uncontrolled joint infection
[5]; infected joint vs uninfected joint
  circumference of the infected tarsocrural joint (effusion): remained very swollen
[5]; over time after MRSA joint infection
  body temperature (fever) course: body temperature spikes were noted at two time points
[5]; spikes
  body temperature in peaks: around 102 ° F.
[2]; dog synoviocytes, read-out: IC50 (cytotoxicity)
  IC50: 13800 µg/mL (≈ 9.5 mM)
[3]; dog chondrocytes, read-out: IC50 (cytotoxicity)
  IC50: 8640 µg/mL (≈ 5.97 mM)

## Ampicillin sulbactam
Synovial Cells; equine synovial cells
  Concentration (equine IC50): >25000 µg/mL
Chondrocytes [1]; equine chondrocytes
  Concentration (equine IC50): >25000 µg/mL

## Gentamicin
Synovial Cells; equine synovial cells
  Concentration (equine IC50): 512.5 µg/mL
Chondrocytes [1]; equine chondrocytes
  Concentration (equine IC50): 708.3 µg/mL

## Neomycin
Synovial Cells; equine synovial cells
  Concentration (equine IC50): 6274 µg/mL
Chondrocytes [1]; equine chondrocytes
  Concentration (equine IC50): 821.9 µg/mL
